{
  "source": "paper PMC3489043",
  "about": "(Nature neuroscience, 2011)",
  "key": {"[1]": {"system": "muscle AChRs", "details": "cited from earlier work"}, "[2]": {"system": "α7 AChRs", "details": "cited from earlier work"}, "[3]": {"molecular_target": "mutant α7 AChRs (Homo sapiens, UniProt P36544, W77F)", "sequence (P36544 23-502 W77F)": "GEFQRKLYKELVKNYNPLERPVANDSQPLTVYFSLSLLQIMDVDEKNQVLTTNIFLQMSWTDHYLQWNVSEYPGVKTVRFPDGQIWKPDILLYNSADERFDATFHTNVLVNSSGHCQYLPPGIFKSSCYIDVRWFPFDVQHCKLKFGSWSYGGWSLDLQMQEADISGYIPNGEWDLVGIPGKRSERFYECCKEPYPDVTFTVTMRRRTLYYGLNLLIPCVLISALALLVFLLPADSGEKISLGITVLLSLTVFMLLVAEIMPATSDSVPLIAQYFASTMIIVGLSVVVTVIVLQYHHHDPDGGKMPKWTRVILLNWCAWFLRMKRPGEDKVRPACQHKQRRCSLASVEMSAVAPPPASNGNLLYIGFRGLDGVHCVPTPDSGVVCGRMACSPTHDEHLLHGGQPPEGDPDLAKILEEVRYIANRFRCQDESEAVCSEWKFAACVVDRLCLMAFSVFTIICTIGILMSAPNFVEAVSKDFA", "assay_type": "binding"}, "[4]": {"system": "mutant α7 AChRs", "assay_type": "binding, human"}, "[5]": {"system": "α7–AChBP chimera", "assay": "Radiolabeled ligand binding to the α7–AChBP chimera", "set-up": "species or system human / Lymnaea stagnalis"}, "[6]": {"molecular_target": "human α7 AChR (Homo sapiens, UniProt P36544)", "sequence (P36544 23-502)": "as the sequence (P36544 23-502 W77F) above, with F55W counted along it", "assay_type": "binding"}},
  "note": "Like-named read-outs stand apart in the source and are kept apart here.",
  "data": [
    {"compound": "C[N+](C)(C)CCO", "note": "[choline]", "values": [
      {"measurement": "efficacy at muscle AChRs", "setting": "[1]", "value": "low efficacy"},
      {"measurement": "efficacy at α7 AChRs", "setting": "[2]", "value": "high efficacy"}
    ]},
    {"compound": "Clc1ccc(C2CC3CCC2N3)cn1", "note": "(stereo not shown) [epibatidine]", "values": [
      {"measurement": "cooperativity of epibatidine binding", "setting": "[3]", "value": "markedly reduced cooperativity"},
      {"measurement": "cooperativity of epibatidine binding", "setting": "[4]", "value": "maintained cooperativity"},
      {"measurement": "increase of the apparent dissociation constant by phenylalanine substitutions", "setting": "[4]", "value": "4- to 2,200 fold"},
      {"measurement": "binding of radiolabeled ligand to the α7–AChBP chimera", "setting": "[5]; radiolabeled ligand, Supplementary Fig. 2", "value": "bound"},
      {"measurement": "epibatidine binding to the α7 AChR", "setting": "[6]", "value": "cooperatively and with high affinity"}
    ]},
    {"compound": "CC(=O)OCC[N+](C)(C)C", "note": "[ACh, acetylcholine]", "values": [
      {"measurement": "change of agonist affinity for the α7 AChR", "setting": "[4]; substitutions at Arg182, Glu185, Glu181 (loop C) and Gln37, steady-state binding", "value": "increased affinity"},
      {"measurement": "cooperativity of ACh binding", "setting": "[6]; steady-state binding", "value": "highly cooperative"}
    ]},
    {"compound": "α-bungarotoxin", "values": [
      {"measurement": "binding of radiolabeled ligand to the α7–AChBP chimera", "setting": "[5]", "value": "bound"}
    ]}
  ]
}
